Tests used:
Assay type in all cases: cell-based
[1] = biological target: T1, pERK1/2 (Thr202/Tyr204), PANC-1 (KRAS G121D) (Homo sapiens, UniProt P01116, G12D); test: Assay of intracellular pERK1/2 (Thr202/Tyr204) phosphorylation in PANC-1 cells (KRAS G12D); conditions: pERK1/2, 2 days, read-out: PANC-1 (KRAS G12D) IC50
T1 construct: pERK1/2 HTRF read-out
Outline: (§1)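 HTRF detection of Thr202/Tyr204-phosphorylated ERK1/2 (665/615 nm ratio) in lysates from cells treated 2 days with serially 3-fold diluted compound.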

[2] = biological target: T2, pERK1/2 (Thr202/Tyr204), NCI-1H358 (KRAS G12C) (Homo sapiens, UniProt P01116, G12C); test: Assay of intracellular pERK1/2 (Thr202/Tyr204) phosphorylation in NCI-H358 cells (KRAS G12C); conditions: pERK1/2, 2 days, read-out: NCI-H358 (KRAS G12C) IC50
T2 construct: pERK1/2 HTRF read-out
Outline: as §1

[3] = biological target: T3, pERK1/2 (Thr202/Tyr204), NCI-1H441 (KRAS G12V) (Homo sapiens, UniProt P01116, G12V); test: Assay of intracellular pERK1/2 (Thr202/Tyr204) phosphorylation in NCI-H441 cells (KRAS G12V); conditions: pERK1/2, 2 days, read-out: NCI-H441 (KRAS G12V) IC50
T3 construct: pERK1/2 HTRF read-out
Outline: as §1

T2 sequence (P01116 1-188 isoform P01116-2 G12C): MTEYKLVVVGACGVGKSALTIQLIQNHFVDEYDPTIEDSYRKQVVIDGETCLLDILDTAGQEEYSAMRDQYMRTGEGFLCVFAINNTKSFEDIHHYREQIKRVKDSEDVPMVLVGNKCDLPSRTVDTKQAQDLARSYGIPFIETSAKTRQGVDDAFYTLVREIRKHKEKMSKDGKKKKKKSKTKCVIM
T3 sequence (P01116 1-188 isoform P01116-2 G12V): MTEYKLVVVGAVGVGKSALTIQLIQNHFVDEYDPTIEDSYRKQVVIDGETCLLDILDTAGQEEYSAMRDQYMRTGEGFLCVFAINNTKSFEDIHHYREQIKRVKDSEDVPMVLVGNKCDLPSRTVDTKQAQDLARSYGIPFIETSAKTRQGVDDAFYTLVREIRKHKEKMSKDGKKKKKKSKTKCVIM
T1 sequence (P01116 1-188 isoform P01116-2 G12D): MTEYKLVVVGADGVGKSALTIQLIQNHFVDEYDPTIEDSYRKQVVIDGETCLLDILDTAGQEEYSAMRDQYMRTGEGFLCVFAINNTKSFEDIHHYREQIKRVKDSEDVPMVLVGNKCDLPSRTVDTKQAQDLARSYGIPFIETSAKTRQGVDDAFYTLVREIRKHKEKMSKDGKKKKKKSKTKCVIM

Row | IC50 [1] [nM] | IC50 [2] [nM] | IC50 [3] [nM] | SMILES
1 | 38 | 0.8 | 2 | [2H]C([2H])(Oc1nc2c3c(nc(-c4cc(N)cc(C)c4C(F)(F)F)c(F)c3n1)OCCN2C(C)c1cccnc1N)[C@@H]1CCC([2H])([2H])N1C([2H])([2H])[2H] (single isomer, unassigned) [Compound 102, 3-((R or S)-1-(5-(5-amino-3-methyl-2-(trifluoromethyl)phenyl)-4-fluoro-2-(((S)-1-(methyl-d3)pyrrolidin-2-yl-5,5-d2)methoxy-d2)-8,9-dihydro-10H-7-oxa-1,3,6,10-tetraazacyclohepta[de]naphthalen-10-yl)ethyl)pyridin-2-amine]
2 | 0.3 | 0.4 | 0.5 | CC(c1cccnc1N)N1c2nc(OC[C@@]34CCCN3C[C@H](F)C4)nc3c(F)c(-c4c(C(F)(F)F)c(Cl)cc5[nH]ncc45)nc(c23)OC[C@@H]1C (single isomer, unassigned) [Compound 330]
3 | > 100 | > 100 | > 100 | CC(c1cccnc1N)N1c2nc(OC[C@@]34CCCN3C[C@H](F)C4)nc3c(F)c(-n4nc(N)c5ccccc54)nc(c23)OC[C@@H]1C (stereo partly drawn) [Compound 336, (*)1-((9S)-10-(1-(2-aminopyridin-3-yl)ethyl)-4-fluoro-2-(((2R,7aS)-2-fluorotetrahydro-1H-pyrrolizin-7a(5H)-yl)methoxy)-9-methyl-9,10-dihydro-8H-7-oxa-1,3,6,10-tetraazacyclohepta[de]naphthalen-5-yl)-1H-indazol-3-amine]
4 | > 100 | 8 | 94 | CC(c1cccnc1N)N1c2nc(OC[C@@]34CCCN3C[C@H](F)C4)nc3c(F)c(-c4c5cccnc5cc5[nH]ncc45)nc(c23)OC[C@@H]1C (stereo partly drawn) [Compound 375]
5 | 34 | 2 | 5 | CC(c1cccnc1N)N1c2nc(OC[C@@]34CCCN3C[C@H](F)C4)nc3c(F)c(-c4c(Cl)c(C(F)(F)F)cc5[nH]ncc45)nc(c23)OC[C@@H]1C (single isomer, unassigned) [Compound 361]
6 | 1 | 0.3 | 0.9 | [2H]C1([2H])CN(C(C)c2cccnc2N)c2nc(OC[C@@]34CCCN3C[C@H](F)C4)nc3c(F)c(-c4cc(N)cc(C)c4C(F)(F)F)nc(c23)O1 (stereo partly drawn) [Compound 140]
7 | > 100 | 23 | 49 | CC(c1cccnc1N)N1c2nc(OC[C@@]34CCCN3C[C@H](F)C4)nc3c(F)c(-c4c(C(F)(F)F)ccc5c4CCCN5)nc(c23)OC[C@@H]1C (single isomer, unassigned; diastereomer 1) [Compound 338, (*)3-(1-((5R or 5S,9S)-4-fluoro-2-(((2R,7aS)-2-fluorotetrahydro-1H-pyrrolizin-7a(5H)-yl)methoxy)-9-methyl-5-(6-(trifluoromethyl)-1,2,3,4-tetrahydroquinolin-5-yl)-8,9-dihydro-10H-7-oxa-1,3,6,10-tetraazacyclohepta[de]naphthalen-10-yl)ethyl)pyridin-2-amine (diastereomer 1)]
8 | > 100 | 69 | > 100 | Cc1cc(N)cc(-c2nc3c4c(nc(OC[C@@]56CCCN5C[C@H](F)C6)nc4c2F)N([C@H](C)c2cccnc2N)CCCO3)c1C(F)(F)F (single isomer, unassigned) [Compound 166, 3-((R or S)-1-(5-(5-amino-3-methyl-2-(trifluoromethyl)phenyl)-4-fluoro-2-(((2R,7aS)-2-fluorotetrahydro-1H-pyrrolizin-7a(5H)-yl)methoxy)-9,10-dihydro-77-oxa-1,3,6,11-tetraazacycloocta[de]naphthalen-11(8H)-yl)ethyl)pyridin-2-amine]
9 | 6 | 0.4 | 0.7 | CC(c1cccnc1N)N1c2nc(OC[C@@]34CCCN3C[C@H](F)C4)nc3cc(-c4c5ccccc5cc5[nH]ncc45)nc(c23)OC[C@@H]1C (stereo partly drawn) [Compound 386]

From US20260356851A1, “TRICYCLIC COMPOUNDS AND USES THEREOF” (HUTCHMED LIMITED, priority 2023, published 2026)
